Data reported in article PMC9531272, “Xanthine oxidase inhibitory study of eight structurally diverse phenolic compounds” (Frontiers in Nutrition, 2022).
Like-named read-outs stand apart in the source and are kept apart here.

Assays:
[1] = system: XO; conditions: cited from earlier work; for IC50: read-out: IC50 against XO
[2] = molecular target: T1, Xanthine oxidase (XO) (Bos taurus, UniProt P80457); experiment: Determination of inhibition type (Line-weaver Burk plot); type: biochemical; conditions: Line-weaver Burk plot analysis toward XO
T1 construct: purchased Sigma-Aldrich (Shanghai, P. R. China)
T1 sequence (P80457 whole entry): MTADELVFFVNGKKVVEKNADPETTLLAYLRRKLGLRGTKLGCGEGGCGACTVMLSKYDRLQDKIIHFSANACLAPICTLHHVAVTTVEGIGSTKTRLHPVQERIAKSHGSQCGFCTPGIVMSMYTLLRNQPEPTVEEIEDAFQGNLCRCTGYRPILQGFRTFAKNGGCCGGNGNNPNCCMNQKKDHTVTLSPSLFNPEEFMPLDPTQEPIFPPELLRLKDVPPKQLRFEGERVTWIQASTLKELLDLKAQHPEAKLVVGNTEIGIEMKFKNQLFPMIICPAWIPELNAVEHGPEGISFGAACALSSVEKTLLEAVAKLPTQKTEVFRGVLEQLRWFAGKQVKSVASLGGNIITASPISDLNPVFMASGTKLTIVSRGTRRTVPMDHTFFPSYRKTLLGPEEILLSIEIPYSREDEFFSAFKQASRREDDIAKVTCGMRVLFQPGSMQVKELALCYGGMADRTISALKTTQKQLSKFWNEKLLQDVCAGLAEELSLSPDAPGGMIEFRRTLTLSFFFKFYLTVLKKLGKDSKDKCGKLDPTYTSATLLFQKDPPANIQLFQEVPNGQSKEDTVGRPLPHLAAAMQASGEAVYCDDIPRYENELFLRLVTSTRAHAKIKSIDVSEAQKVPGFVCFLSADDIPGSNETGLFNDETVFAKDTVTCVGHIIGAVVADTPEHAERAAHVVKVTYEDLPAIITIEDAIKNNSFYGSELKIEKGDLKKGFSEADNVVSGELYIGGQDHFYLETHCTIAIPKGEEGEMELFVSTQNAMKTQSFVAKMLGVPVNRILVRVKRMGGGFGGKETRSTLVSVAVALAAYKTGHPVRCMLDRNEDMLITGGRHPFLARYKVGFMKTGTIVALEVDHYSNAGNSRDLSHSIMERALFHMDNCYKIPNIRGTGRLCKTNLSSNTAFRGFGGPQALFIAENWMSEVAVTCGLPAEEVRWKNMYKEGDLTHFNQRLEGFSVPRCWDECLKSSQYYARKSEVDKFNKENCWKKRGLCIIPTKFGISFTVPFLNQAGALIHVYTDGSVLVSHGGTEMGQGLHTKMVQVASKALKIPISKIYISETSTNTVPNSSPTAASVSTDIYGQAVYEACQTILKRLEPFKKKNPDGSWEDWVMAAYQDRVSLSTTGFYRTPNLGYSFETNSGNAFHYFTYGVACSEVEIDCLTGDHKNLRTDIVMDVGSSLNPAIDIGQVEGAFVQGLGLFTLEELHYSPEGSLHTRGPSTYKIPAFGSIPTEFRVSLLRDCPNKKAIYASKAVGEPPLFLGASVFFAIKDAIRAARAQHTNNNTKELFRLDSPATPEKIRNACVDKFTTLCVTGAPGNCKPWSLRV

[3] = molecular target: T1, Xanthine oxidase (XO); experiment: XO inhibitory activity of phenolic compounds (absorbance at 292 nm); type: biochemical; conditions: XO 0.1 U/ml, 37°C, 15 min preincubation; mean ± SD

Row | SMILES | Inhibition type [2] | IC50 [3] [µM] | other results
1 | Oc1ncnc2[nH]ncc12 [Allopurinol, allopurinol, reference compound] |  |  | IC50 ([1]; ref Wang et al. ([28])): 6.96 µM
2 | O=c1c(O)c(-c2ccc(O)c(O)c2)oc2cc(O)cc(O)c12 [C1, quercetin] | Mixed |  | 
3 | C[C@@H]1O[C@@H](Oc2c(-c3ccc(O)c(O)c3)oc3cc(O)cc(O)c3c2=O)[C@H](O)[C@H](O)[C@H]1O [C2, quercetin-3-rhamnoside] | Competitive | 12.1 ± 0.65 | 
4 | O=C(/C=C/c1ccc(O)c(O)c1)O[C@@H]1[C@H](O)C[C@@](O)(C(=O)O)C[C@H]1OC(=O)/C=C/c1ccc(O)c(O)c1 [C3, 4,5-O-dicaffeoylquinic acid] | Mixed | 26.7 ± 1.2 | 
5 | O=C(/C=C/c1ccc(O)c(O)c1)O[C@@H]1CC(O)(C(=O)O)C[C@@H](OC(=O)/C=C/c2ccc(O)c(O)c2)C1O (some centres unmarked) [C4, 3,5-O-dicaffeoylquinic acid] | Competitive | 28.9 ± 1.02 | 
6 | O=C(/C=C/c1ccc(O)c(O)c1)O[C@H]1[C@H](O)C[C@](O)(C(=O)O)C[C@H]1OC(=O)/C=C/c1ccc(O)c(O)c1 [C5, 3,4-O-di-caffeoylquinic acid] | Competitive | 44.6 ± 1.65 | 

Second part, led by results:

Row | Inhibition type [2] | IC50 [3] [µM] | SMILES | other results
7 | Competitive | 70.2 ± 2.25 | O=C(/C=C/c1ccc(O)c(O)c1)O[C@H]1[C@H](O)C[C@](O)(C(=O)O)C[C@H]1O [C6, 4-O-caffeoylquinic acid] | 
8 | Competitive | 80.9 ± 3.06 | O=C(/C=C/c1ccc(O)c(O)c1)O[C@@H]1C[C@](O)(C(=O)O)C[C@@H](O)[C@H]1O [C7, 3-O-caffeoylquinic acid] | 
9 |  | 95.6 ± 3.28 | O=C(O)/C=C/c1ccc(O)c(O)c1 [C8, caffeic acid] | XO inhibition ([1]; at 125 μM concentration, ref Song et al. ([29])): 5.74 ± 2.64%; IC50 ([1]; ref Chan et al. ([31])): > 50 µM; IC50 ([1]; ref Nguyen et al. ([33])): 85.3 µM; IC50 ([1]; ref Wang et al. ([28])): 53.5 µM; IC50 ([1]; ref Wang et al. ([30])): 65.6 ± 2.71 µM
